US5093477A, “Rapidly cleavable substrate for HIV protease” (priority 1988, dated 1992)
Where a SMILES comes first, the peptide text is derived from it. [ ]: non-standard residue; d: D form. The star is where a group is joined. Sta = CC(C)C[C@H](N)[C@@H](O)CC(=O)O; Isovaleryl = CC(C)CC(=O)*

Tests used:
Assay type in all cases: biochemical
HIV protease [1] = biological target: T1, HIV protease (Human immunodeficiency virus type 1 group M subtype B, UniProt P04585); test: HIV protease kinetics: comparison of the cleavage rate of several substrates (Tab. 6); settings: substrate 2 mg/ml, HIV protease No. II (1:4)
T1 construct: The enzyme is composed of only 99 amino acids and evidently eliminates itself from the pol gene
Protocol: C) Procedure for the HIV protease kinetics (Tab. 6) 10 μl of substrate solution (2 mg/ml) in MGTEl5 buffer and 10 μl of MGTE15 buffer are combined and incubated at 37° C. for 5-10 minutes. 5 μl of HIV protease No. II (diluted 1:4 with MGTE25 buffer) are added to this, and the mixture is shaken at 37° C. Subsequent procedure as in B).
Column: Merck HIBAR ®LICHROSORB RP8 (7 μm) 250×4
Flow rate: 1 ml min for SFNFPQI and SFNFOQI 0.5 ml/min for […] and VSQNYOIVQ. Otherwise as in Ae).

HIV protease [2] = biological target: T1, HIV protease; test: HIV protease inhibitor test with Ser-Phe-Asn-Phe-Opr-Gln-Ile as substrate; settings: substrate Ser-Phe-Asn-Phe-Opr-Gln-Ile 2 mg/ml, HIV protease No. I (1:10), blank 33.62 %
Protocol: A) General procedure for testing inhibitors of HIV protease with Ser-Phe-Asn-Phe-Opr-Gln-Ile
2 mg of Ser-Phe-Asn-Phe-Opr-Gln-Ile are dissolved in 1 ml of MGTE15 buffer (possibly using ultrasound) and subsequently filtered through a sterile filter (0.45 μm).
2.5 times the desired molarity of the inhibitor per ml of solution are weighed in and dissolved in DMSO (10% of the final volume). The solution is diluted to the final volume with MGTE15 buffer and filtered through a sterile filter (0.45 μm).
5 μl of the HIV protease solution are diluted with MGTE25 buffer as required.
10 μl portions of the substrate solution are pipetted into test tubes (16×100) with screw caps. 10 μl of MGTE15 buffer which contains 10% DMSO are pipetted into the blank. 10 μl portions of the inhibitor solutions are added to the remaining test tubes. These samples are incubated at 37° C. for 5-10 minutes and then 5 μl of the protease solution are added to each. After reaction at 37° C. for 2 hours, 10 or 20 μl of each sample (depending on the sensitivity of the HPLC apparatus) are removed by pipette, placed in microvials and diluted with 120 μl of the HPLC solvent.
(§1) Solvent system: 80% 0.1 M phosphoric acid pH 2.5. 20% (w/w) acetonitrile
(§2) Column: Merck ®LICHROSORB RP18 (5 μm) 250×4
(§3) Column temperature: 42° C.
(§4) Detector parameters: 215 nm, 0.08 AUF, 18.2° C.
(§5) Analysis time: 11 minutes
The % content of the tetrapeptide peak relative to the tetrapeptide+heptapeptide total corresponds to the proportion cleaved.

HIV protease [3] = biological target: T1, HIV protease; test: HIV protease kinetics: cleavage of peptide substrates followed by HPLC (Tab. 1-4); settings: substrate 4 mg/ml, HIV protease No. II (5 μl)
Protocol: e) Conditions for HPLC analysis:
as §1, §2, §3, §4, §5
Retention time of the substrate: 8.1 minutes
Retention time of the N-terminal tetrapeptide: 3.9 minutes
Under the conditions chosen here, the heptapeptides are separated from the N-terminal tetrapeptide produced in the enzymatic cleavage. The % content of the tetrapeptide peak relative to the tetrapeptide+heptapeptide total corresponds to the proportion cleaved.
B) Procedure for HIV protease kinetics (Tab. 1-4)
10 μl of substrate solution (2-4 mg/ml) in MGTE15 buffer and 10 μl of MGTE15 buffer which contains 10% dimethyl sulfoxide are combined and incubated at 37° C. for 5-10 minutes. 5 μl of the HIV protease solution in MGTE25 buffer are added to this, and the mixture is shaken at 37° C. […] The microliter syringe is used to load the total amount onto the HPLC column. HPLC conditions as in A).

Compound | % tetrapeptide = % cleavage (HIV protease [1]; 5 min) | % tetrapeptide = % cleavage (HIV protease [1]; 10 min) | % tetrapeptide = % cleavage (HIV protease [1]; 20 min) | % tetrapeptide = % cleavage (HIV protease [1]; 40 min) | % tetrapeptide = % cleavage (HIV protease [1]; 80 min) | % tetrapeptide = % cleavage (HIV protease [1]; 160 min) | % tetrapeptide = % cleavage (HIV protease [1]; 320 min) | other results
H-VSQNYPIVQ-OH | 3.66% | 6.53% | 11.31% | 20.32% | 31.49% | 55.00% | 62.48% | –
CC(C)CC(=O)N[C@H](C(=O)N[C@H](C(=O)N[C@@H](CC(C)C)[C@@H](O)CC(=O)N[C@@H](C)C(=O)N[C@@H](CC(C)C)[C@@H](O)CC(=O)O)C(C)C)C(C)C [Pepstatin A] (Isovaleryl-VV[Sta]A[Sta]-OH) | – | – | – | – | – | – | – | Cleavage (%) (HIV protease [2]; inhibitor 10^-4 M): 1.25%; Cleavage (%) (HIV protease [2]; inhibitor 10^-5 M): 4.73%; Cleavage (%) (HIV protease [2]; inhibitor 10^-6 M): 18.22%; Cleavage (%) (HIV protease [2]; inhibitor 10^-7 M): 25.09%
H-SFNFPQI-OH [SFNFPQI, H-Ser-Phe-Asn-Phe-Pro-Gln-Ile-OH] | 0.25% | 4.68% | 7.01% | 11.34% | 19.50% | 34.19% | 48.18% | % cleavage after 5 minutes' cleavage time (text summary of Tab. 1 and 2) (HIV protease [3]; 5 minutes, both experiments): about 4%; % cleavage (HIV protease [3]; Experiment A, 5 min): 4.00%; % cleavage (HIV protease [3]; Experiment A, 10 min): 8.19%; % cleavage (HIV protease [3]; Experiment A, 20 min): 14.57%; % cleavage (HIV protease [3]; Experiment A, 40 min): 23.40%; % cleavage (HIV protease [3]; Experiment A, 80 min): 39.43%; % cleavage (HIV protease [3]; Experiment A, 160 min): 58.39%; % cleavage (HIV protease [3]; Experiment A, 320 min): 70.16%; % cleavage (HIV protease [3]; Experiment B, 5 min): 4.15%; % cleavage (HIV protease [3]; Experiment B, 10 min): 7.54%; % cleavage (HIV protease [3]; Experiment B, 20 min): 14.35%; % cleavage (HIV protease [3]; Experiment B, 40 min): 23.00%; % cleavage (HIV protease [3]; Experiment B, 80 min): 37.68%; % cleavage (HIV protease [3]; Experiment B, 160 min): 57.11%; % cleavage (HIV protease [3]; Experiment B, 320 min): 72.51%
H-Val-Ser-Gln-Asn-Tyr-Opr-Ile-Val-Gln-OH [VSQNYOIVQ] | 10.27% | 20.72% | 40.47% | 60.50% | 88.98% | 100.00% | 100.00% | –
